The results in this text go back to ChEMBL document CHEMBL4251600, “Bioactive products from singlet oxygen photooxygenation of cannabinoids” (Eur J Med Chem, 2018).

≈ marks a conversion by molar mass, not a printed value. Calls of active or inactive are those of the source. The rule behind the calls is not given here.

Assay [1] has as its system Cryptococcus neoformans. In words: Antifungal activity against Cryptococcus neoformans by alamar blue assay. In kind it is functional, organism-based. A general note: The colour change of resazurin is a common sign of viable cells or microbes.
In assay [2] the test system is SK-OV-3. In words: Anticancer activity against human SKOV3 cells assessed as cell growth inhibition up to 10 ug/ml incubated for 48 hrs by neutral red dye based assay. In kind it is functional.
Assay [3] relates to Plasmodium falciparum. In words: Antiplasmodial activity against chloroquine-sensitive Plasmodium falciparum D6 infected in red blood cells incubated for 72 hrs by parasite LDH release based colorimetric assay. In kind it is functional, organism-based. Conditions: D6, 72 h. In general terms: Release of lactate dehydrogenase indicates damage to the cell membrane.
In assay [4] the test system is Staphylococcus aureus. In words: Antimicrobial activity against methicillin-resistant Staphylococcus aureus by modified CLSI based method. In kind it is functional, organism-based.
Assay [5] relates to Pichia kudriavzevii. In words: Antifungal activity against Candida krusei by modified CLSI based method. In kind it is functional, organism-based.
The subject of assay [6] is KB. In words: Anticancer activity against human KB cells assessed as cell growth inhibition up to 10 ug/ml incubated for 48 hrs by neutral red dye based assay. The assay is classed as functional.
The test system of assay [7] is BT-549. In words: Anticancer activity against human BT549 cells assessed as cell growth inhibition up to 10 ug/ml incubated for 48 hrs by neutral red dye based assay. In kind it is functional.
The subject of assay [8] is SK-MEL. The assay can be described thus: Anticancer activity against human SK-MEL cells assessed as cell growth inhibition incubated for 48 hrs by neutral red dye based assay. The assay is classed as functional.
Assay [9] deals with LLC-PK1. The assay can be described thus: Cytotoxicity against pig LLC-PK1 cells assessed as cell growth inhibition incubated for 48 hrs by neutral red dye based assay. The arrangement: species or system Sus scrofa.
Assay [10] concerns Staphylococcus aureus. The assay can be described thus: Antimicrobial activity against Staphylococcus aureus by modified CLSI based method. In kind it is functional, organism-based.
Assay [11] has as its system Leishmania donovani. In words: Antileishmanial activity against Leishmania donovani promastigotes incubated for 48 hrs by alamar blue assay. In kind it is functional, organism-based.
Assay [12] has as its system Nakaseomyces glabratus. The assay can be described thus: Antifungal activity against Candida glabrata by modified CLSI based method. In kind it is functional, organism-based.
Assay [13] has as its system Plasmodium falciparum. The assay can be described thus: Antiplasmodial activity against chloroquine-resistant Plasmodium falciparum W2 infected in red blood cells incubated for 72 hrs by parasite LDH release based colorimetric assay. The following applies: W2, 72 h. The assay is classed as functional, organism-based.
The subject of assay [14] is KB. The assay can be described thus: Anticancer activity against human KB cells assessed as cell growth inhibition incubated for 48 hrs by neutral red dye based assay. In kind it is functional.
Assay [15] deals with Cannabinoid receptor 1 (Homo sapiens, UniProt P21554). In words: Displacement of [3H]CP-55,940 from recombinant human full length CB1 receptor expressed in HEK293 cell membranes after 90 mins by topcount method. (Displacement assays read how much labelled ligand stays bound in the presence of the test substance.)
Sequence of Cannabinoid receptor 1 (P21554 whole entry): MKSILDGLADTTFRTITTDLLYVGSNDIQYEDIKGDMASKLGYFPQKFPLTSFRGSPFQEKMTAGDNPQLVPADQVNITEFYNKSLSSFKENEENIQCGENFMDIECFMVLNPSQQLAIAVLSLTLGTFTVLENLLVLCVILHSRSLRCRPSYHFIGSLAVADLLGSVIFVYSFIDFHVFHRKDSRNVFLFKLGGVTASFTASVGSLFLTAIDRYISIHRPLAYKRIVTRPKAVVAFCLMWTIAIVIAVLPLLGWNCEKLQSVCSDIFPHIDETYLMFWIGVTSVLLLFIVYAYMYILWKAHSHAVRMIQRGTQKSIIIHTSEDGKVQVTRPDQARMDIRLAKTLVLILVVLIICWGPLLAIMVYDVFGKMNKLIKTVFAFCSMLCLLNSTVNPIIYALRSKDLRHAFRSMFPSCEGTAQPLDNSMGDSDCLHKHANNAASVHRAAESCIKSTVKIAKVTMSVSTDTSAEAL
The subject of assay [16] is SK-OV-3. The assay can be described thus: Anticancer activity against human SKOV3 cells assessed as cell growth inhibition incubated for 48 hrs by neutral red dye based assay. In kind it is functional. Conditions: SK-OV-3, 48 h.
The target in assay [17] is Cannabinoid receptor 2 (Homo sapiens, UniProt P34972). In words: Displacement of [3H]CP-55,940 from recombinant human full length CB2 receptor expressed in HEK293 cell membranes after 90 mins by topcount method.
Sequence of Cannabinoid receptor 2 (P34972 whole entry): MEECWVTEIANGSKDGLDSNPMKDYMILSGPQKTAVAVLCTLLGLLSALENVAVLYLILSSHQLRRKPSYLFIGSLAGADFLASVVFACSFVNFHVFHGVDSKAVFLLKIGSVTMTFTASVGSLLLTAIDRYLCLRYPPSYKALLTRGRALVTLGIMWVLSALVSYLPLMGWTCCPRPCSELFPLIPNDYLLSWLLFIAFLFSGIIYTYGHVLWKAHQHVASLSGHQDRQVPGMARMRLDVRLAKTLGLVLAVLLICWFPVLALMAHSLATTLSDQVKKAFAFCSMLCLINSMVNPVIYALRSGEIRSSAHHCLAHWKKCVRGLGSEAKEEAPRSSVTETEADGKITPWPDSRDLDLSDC
Assay [18] concerns BT-549. In words: Anticancer activity against human BT549 cells assessed as cell growth inhibition incubated for 48 hrs by neutral red dye based assay. The assay is classed as functional. The following applies: BT-549, 48 h.
For assay [19], the system named is Vero. In words: Cytotoxicity against African green monkey Vero cells assessed as cell growth inhibition incubated for 48 hrs by neutral red dye based assay. Conditions: Chlorocebus sabaeus.
Assay [20] has as its system SK-MEL. The assay can be described thus: Anticancer activity against human SK-MEL cells assessed as cell growth inhibition up to 10 ug/ml incubated for 48 hrs by neutral red dye based assay. The assay is classed as functional.
Where [21] appears, read: Cryptococcus neoformans, read-out: IC50.
[22] abbreviates: Cryptococcus neoformans, read-out: MIC.
Setting [23] is: Staphylococcus aureus, read-out: MIC.
Setting [24] is: Leishmania donovani, 48 h, read-out: IC50.
Setting [25] is: Leishmania donovani, 48 h, read-out: IC90.
Setting [26] is: Staphylococcus aureus, read-out: IC50.
Where [27] appears, read: Sus scrofa, LLC-PK1, 48 h, read-out: IC50.

With `C=C1C[C@H]2C3=C(OC(C)(C)[C@@H]2CC1OO)C(=O)C(CCCCC)=CC3=O` (stereo in doubt; 25), the half-maximal inhibitory concentration (IC50) (in general, the midpoint of a concentration-inhibition curve) was 1.4 µg/mL (≈ 3.88 µM) in [1] (setting [21]); “Not Active” in [2]; 1 µg/mL (≈ 2.77 µM) in assay [3]; 5.78 µg/mL (≈ 16 µM) in assay [4]; 17 µg/mL (≈ 47.2 µM) in assay [5] (Pichia kudriavzevii, read-out: IC50); “Not Active” in assay [6]. Moreover, the IC50 result in [7] is “Not Active”; in assay [8] it was 8.65 µg/mL (≈ 24 µM); in assay [9] (llc-pk1), 9.9 µg/mL (≈ 27.5 µM); in assay [10], 0.91 µg/mL (≈ 2.52 µM); in [11] (setting [24]), 2.1 µg/mL (≈ 5.83 µM); in assay [12] it was “Not Active”. In assay [13], the IC50 was 0.9 µg/mL (≈ 2.5 µM). Besides, the results for the minimal inhibitory concentration (MIC) in [1] (setting [22]), in assay [4] (Staphylococcus aureus) and in [10] (setting [23]) were 2.5 µg/mL (≈ 6.94 µM), 10 µg/mL (≈ 27.7 µM) and 2.5 µg/mL (≈ 6.94 µM), respectively. The IC90 – broadly, the concentration at which the effect reaches the 90% level – in assay [11] (setting [25]) came out at 11 µg/mL (≈ 30.5 µM).

As for `CCCCCC1=CC(=O)C2=C(OC(C)(C)[C@@H]3CC[C@](C)(OCC)C=C23)C1=O`, the IC50 was found to be 5.25 µg/mL (≈ 14.1 µM) in assay [14]; 1.84 µM in assay [15]; 0.7 µg/mL (≈ 1.88 µM) in assay [1] (setting [21]); 4.35 µg/mL (≈ 11.7 µM) in assay [16]; 0.16 µg/mL (≈ 0.43 µM) in assay [3]; 4.07 µM in assay [17]. Further, the IC50 in [4] (setting [26]) is 1.36 µg/mL (≈ 3.65 µM); in [5] it was “Not Active”; in assay [18] it was 4.2 µg/mL (≈ 11.3 µM); in assay [19], 4.1 µg/mL (≈ 11 µM); in assay [9] (setting [27]), 2.25 µg/mL (≈ 6.04 µM); in assay [10] (setting [26]) it was 1.35 µg/mL (≈ 3.62 µM). Also, the half-inhibitory concentration (IC50) in [11] (setting [24]) was 0.06 µg/mL (≈ 0.161 µM); in [12], “Not Active”; in assay [13] it was 0.2 µg/mL (≈ 0.537 µM). Moreover, the inhibition constant (Ki) – broadly, a dissociation constant, usually derived from enzyme kinetics or from competition with a known ligand – in [15] was determined as 0.919 µM; in assay [17], 2.03 µM. The MIC in [1] (setting [22]), in [4] (Staphylococcus aureus) and in assay [10] (setting [23]) was 2.5 µg/mL (≈ 6.71 µM) in each case. For the same compound, the MIC entry in assay [5] and in [12] was “inactive” throughout. In assay [11] (setting [25]), the IC90 turned out to be 0.13 µg/mL (≈ 0.349 µM).

As for `CCCCCC1=CC(=O)C2=C(OC(C)(C)c3ccc(C)cc32)C1=O`, the concentration for half-maximal inhibition (IC50) in assay [1] (setting [21]) was 4.44 µg/mL (≈ 13.7 µM); in assay [2], “Not Active”; in assay [4], “Not Active”; in [5] it was “Not Active”; in assay [6], “Not Active”; in assay [18], 6.05 µg/mL (≈ 18.6 µM). Moreover, the IC50 in [8] is 7.6 µg/mL (≈ 23.4 µM); in assay [9] (setting [27]), 5.65 µg/mL (≈ 17.4 µM); in assay [10] (setting [26]), more than 20 µg/mL; in assay [12], “Not Active”. Besides, in [1] (setting [22]), the minimal inhibitory concentration (MIC) (commonly the lowest concentration found to suppress growth) was 20 µg/mL (≈ 61.6 µM). The MIC entry in assay [4], in assay [5], in assay [10] and in [12] was “inactive” each time.

Take `C=C1C[C@H]2C3=C(OC(C)(C)[C@@H]2CC1OO)C(=O)C(CCCCC)=CC3=O` (stereo in doubt; 26): the IC50 in assay [1] was 2.05 µg/mL (≈ 5.69 µM); in assay [4], 15.3 µg/mL (≈ 42.4 µM); in assay [5] it was 20 µg/mL (≈ 55.5 µM); in assay [20], “Not Active”; in assay [9] (setting [27]), 9.95 µg/mL (≈ 27.6 µM); in assay [10], 2.41 µg/mL (≈ 6.69 µM). Besides, in assay [11], the IC50 came out at 3.1 µg/mL (≈ 8.6 µM). Moreover, the minimal inhibitory concentration (MIC) in [1] and in assay [10] was 5 µg/mL (≈ 13.9 µM) throughout. This compound yielded a concentration for an effect of 90% (IC90) in assay [11] of 8 µg/mL (≈ 22.2 µM).
